Experimental data reported in ChEMBL document CHEMBL5550211 (J Med Chem, 2024).
Values after ≈ are worked out from the molar mass of the structure shown. Active and inactive are the calls of the source. The rule behind the calls is not given here.

Legend:
[1] = Drug concentration in mouse plasma at 10 mg/kg, po after 2 hrs; format: ADME, organism-based
[2] = Unbound drug concentration in mouse plasma at 5 mg/kg, po after 4 hrs; format: ADME, organism-based; details: in vivo
[3] = Tmax in mouse at 5 mg/kg, po; format: ADME, organism-based; details: in vivo
[4] = AUCinfinity in mouse at 10 mg/kg, po; format: ADME, organism-based; details: in vivo
[5] = Drug concentration in mouse brain at 5 mg/kg, po after 4 hrs; format: ADME, organism-based; details: read-out: Ct
[6] = AUCinfinity in mouse at 5 mg/kg, po; format: ADME, organism-based; details: in vivo
[7] = Plasma protein binding in rat assessed as unbound fraction; format: ADME, cell-free
[8] = Unbound drug concentration in mouse plasma at 5 mg/kg, po after 2 hrs; format: ADME, organism-based; details: in vivo
[9] = Oral bioavailability in mouse at 5 mg/kg; format: ADME, organism-based; details: in vivo
A-375 [10] = assay: Antitumor activity against human A-375 cells harboring BRAF V600E mutant xenografted in Nu/nu NCR mouse assessed as IC90 coverage at 5 mg/kg, po BID for 60 days; format: functional, organism-based; details: time 60.0 day
[11] = Unbound drug concentration in mouse brain at 10 mg/kg, po after 2 hrs; format: ADME, organism-based; details: in vivo
[12] = Volume of distribution at steady state in mouse at 3 mg/kg, iv; format: ADME, organism-based; details: in vivo, read-out: Vdss
[13] = Drug concentration in mouse plasma at 5 mg/kg, po after 4 hrs; format: ADME, organism-based
[14] = Drug concentration in mouse brain at 10 mg/kg, po after 4 hrs; format: ADME, organism-based; details: read-out: Ct
[15] = Dissociation constant, pKa of the compound; format: physicochemical
[16] = Unbound drug concentration in mouse plasma at 30 mg/kg, po after 2 hrs; format: ADME, organism-based; details: in vivo
[17] = Cmax in mouse at 10 mg/kg, po; format: ADME, organism-based; details: in vivo
[18] = Drug concentration in mouse plasma at 5 mg/kg, po after 2 hrs; format: ADME, organism-based
[19] = Toxicity in Nu/nu NCR mouse subcutaneously xenografted with human A-375 cells harboring BRAF V600E mutant assessed as body weight loss at 5 to 10 mg/kg, po measured after 21 days; format: organism-based; details: in vivo, 504 h, dose 5-10 mg/kg, time 21 day
A-375 [20] = assay: Antitumor activity against human A-375 cells harboring BRAF V600E mutant xenografted in Nu/nu NCR mouse assessed as tumor regression at 10 mg/kg, po BID measured after 2 weeks; format: functional, organism-based
[21] = Drug concentration in mouse brain at 30 mg/kg, po after 4 hrs; format: ADME, organism-based; details: read-out: Ct
[22] = Toxicity in Nu/nu NCR mouse intracerebrally xenografted with human A-375 cells harboring BRAF V600E mutant assessed as animal death at 5 to 10 mg/kg, po measured after 60 days; format: organism-based; details: in vivo, 1440 h, dose 5-10 mg/kg, time 60 day
[23] = Oral bioavailability in mouse at 30 mg/kg; format: ADME, organism-based; details: in vivo
[24] = Cmax in mouse at 5 mg/kg, po; format: ADME, organism-based; details: in vivo
A-375 [25] = assay: Antitumor activity against human A-375 cells harboring BRAF V600E mutant xenografted in Nu/nu NCR mouse assessed as tumor flux inhibition at 10 to 30 mg/kg, po BID for 60 days; format: functional; parameters: scale not given: the % may be the effect or the level left; details: dose 10-30 mg/kg, time 60 day
[26] = Unbound drug concentration in mouse brain at 30 mg/kg, po after 2 hrs; format: ADME, organism-based; details: in vivo
[27] = Plasma protein binding in cynomolgus monkey assessed as unbound fraction; format: ADME, cell-free, Macaca fascicularis
[28] = Protein binding in cynomolgus monkey brain assessed as unbound fraction; format: ADME, tissue-based, Macaca fascicularis
A-375 [29] = assay: Antitumor activity against human A-375 cells harboring BRAF V600E mutant xenografted in Nu/nu NCR mouse assessed as tumor regression at 10 to 30 mg/kg, po BID for 60 days; format: functional; details: dose 10-30 mg/kg, time 60 day
[30] = Unbound drug concentration in mouse brain at 30 mg/kg, po after 4 hrs; format: ADME, organism-based; details: in vivo
[31] = Unbound drug concentration in mouse brain at 5 mg/kg, po after 4 hrs; format: ADME, organism-based; details: in vivo
[32] = Drug concentration in mouse brain at 5 mg/kg, po after 2 hrs; format: ADME, organism-based; details: read-out: Ct
A-375 [33] = assay: Antitumor activity against human A-375 cells harboring BRAF V600E mutant xenografted in Nu/nu NCR mouse assessed as tumor regression at 5 mg/kg, po BID for 21 days; format: functional, organism-based; details: time 21.0 day
[34] = Plasma protein binding in mouse assessed as unbound fraction; format: ADME, cell-free
[35] = Drug concentration in mouse plasma at 30 mg/kg, po after 2 hrs; format: ADME, organism-based
[36] = Toxicity in Nu/nu NCR mouse intracerebrally xenografted with human A-375 cells harboring BRAF V600E mutant assessed as body weight loss at 5 to 10 mg/kg, po measured after 60 days; format: organism-based; details: in vivo, 1440 h, dose 5-10 mg/kg, time 60 day
[37] = Drug concentration in mouse brain at 30 mg/kg, po after 2 hrs; format: ADME, organism-based; details: read-out: Ct
[38] = Unbound drug concentration in mouse brain at 5 mg/kg, po after 2 hrs; format: ADME, organism-based; details: in vivo
[39] = Half-life in mouse at 3 mg/kg, iv; format: ADME, organism-based; details: in vivo
[40] = AUCinfinity in mouse at 30 mg/kg, po; format: ADME, organism-based; details: in vivo
[41] = Unbound drug concentration in mouse plasma at 30 mg/kg, po after 4 hrs; format: ADME, organism-based; details: in vivo
A-375 [42] = assay: Antitumor activity against human A-375 cells harboring BRAF V600E mutant xenografted in Nu/nu NCR mouse assessed as IC90 coverage time at 30 mg/kg, po BID for 60 days; format: functional; details: time 60 day
[43] = Tmax in mouse at 10 mg/kg, po; format: ADME, organism-based; details: in vivo
[44] = Apparent permeability across apical to basolateral side in LLC-PK1 cells; format: ADME, cell-based, Sus scrofa; details: pig
[45] = Drug concentration in mouse plasma at 10 mg/kg, po after 4 hrs; format: ADME, organism-based
[46] = Tmax in mouse at 30 mg/kg, po; format: ADME, organism-based; details: in vivo
[47] = Plasma protein binding in dog assessed as unbound fraction; format: ADME, cell-free, Canis lupus familiaris
[48] = target: Voltage-gated inwardly rectifying potassium channel KCNH2 (Homo sapiens, UniProt Q12809); assay: Inhibition of hERG; format: toxicity
[49] = Drug concentration in mouse brain at 10 mg/kg, po after 2 hrs; format: ADME, organism-based; details: read-out: Ct
[50] = Unbound drug concentration in mouse brain at 10 mg/kg, po after 4 hrs; format: ADME, organism-based; details: in vivo
[51] = Protein binding in mouse brain assessed as unbound fraction; format: ADME, tissue-based
[52] = Oral bioavailability in mouse at 10 mg/kg; format: ADME, organism-based; details: in vivo
A-375 [53] = assay: Antitumor activity against human A-375 cells harboring BRAF V600E mutant xenografted in Nu/nu NCR mouse assessed as IC90 coverage time at 10 mg/kg, po BID for 60 days; format: functional; details: time 60 day
A-375 [54] = assay: Antitumor activity against human A-375 cells harboring BRAF V600E mutant xenografted in Nu/nu NCR mouse assessed as IC90 coverage time at 10 mg/kg, po BID for 21 days; format: functional; details: time 21 day
[55] = Solubility in buffer at pH 7.4; format: physicochemical
[56] = Plasma protein binding in human assessed as unbound fraction; format: ADME, cell-free
[57] = Protein binding in dog brain assessed as unbound fraction; format: ADME, tissue-based, Canis lupus familiaris
[58] = Drug concentration in mouse plasma at 30 mg/kg, po after 4 hrs; format: ADME, organism-based
[59] = Chemical stability in MeOH/NaHCO3/glutathione assessed as drug metabolism assessed as SN2 substitution after 50 degreeC overnight incubation; format: physicochemical; details: read-out: Drug metabolism
[60] = Solubility in stimulated gastric fluid at pH 1.2; format: ADME; details: simulated gastric fluid
[61] = Solubility in stimulated intestinal fluid at pH 6.5; format: ADME; details: simulated intestinal fluid
[62] = Clearance in mouse at 3 mg/kg, iv; format: ADME, organism-based; details: in vivo
[63] = Chemical stability in MeOH/NaHCO3/cysteine assessed as drug metabolism assessed as SN2 substitution after 50 degreeC overnight incubation; format: physicochemical; details: read-out: Drug metabolism
[64] = Cmax in mouse at 30 mg/kg, po; format: ADME, organism-based; details: in vivo
[65] = Protein binding in rat brain assessed as unbound fraction; format: ADME, tissue-based
A-375 [66] = assay: Antitumor activity against human A-375 cells harboring BRAF V600E mutant xenografted in Nu/nu NCR mouse assessed as IC90 coverage time at 5 mg/kg, po BID for 21 days; format: functional; details: time 21 day
[67] = Unbound drug concentration in mouse plasma at 10 mg/kg, po after 4 hrs; format: ADME, organism-based; details: in vivo
[68] = Unbound drug concentration in mouse plasma at 10 mg/kg, po after 2 hrs; format: ADME, organism-based; details: in vivo

Sequence of Voltage-gated inwardly rectifying potassium channel KCNH2 (Q12809 whole entry): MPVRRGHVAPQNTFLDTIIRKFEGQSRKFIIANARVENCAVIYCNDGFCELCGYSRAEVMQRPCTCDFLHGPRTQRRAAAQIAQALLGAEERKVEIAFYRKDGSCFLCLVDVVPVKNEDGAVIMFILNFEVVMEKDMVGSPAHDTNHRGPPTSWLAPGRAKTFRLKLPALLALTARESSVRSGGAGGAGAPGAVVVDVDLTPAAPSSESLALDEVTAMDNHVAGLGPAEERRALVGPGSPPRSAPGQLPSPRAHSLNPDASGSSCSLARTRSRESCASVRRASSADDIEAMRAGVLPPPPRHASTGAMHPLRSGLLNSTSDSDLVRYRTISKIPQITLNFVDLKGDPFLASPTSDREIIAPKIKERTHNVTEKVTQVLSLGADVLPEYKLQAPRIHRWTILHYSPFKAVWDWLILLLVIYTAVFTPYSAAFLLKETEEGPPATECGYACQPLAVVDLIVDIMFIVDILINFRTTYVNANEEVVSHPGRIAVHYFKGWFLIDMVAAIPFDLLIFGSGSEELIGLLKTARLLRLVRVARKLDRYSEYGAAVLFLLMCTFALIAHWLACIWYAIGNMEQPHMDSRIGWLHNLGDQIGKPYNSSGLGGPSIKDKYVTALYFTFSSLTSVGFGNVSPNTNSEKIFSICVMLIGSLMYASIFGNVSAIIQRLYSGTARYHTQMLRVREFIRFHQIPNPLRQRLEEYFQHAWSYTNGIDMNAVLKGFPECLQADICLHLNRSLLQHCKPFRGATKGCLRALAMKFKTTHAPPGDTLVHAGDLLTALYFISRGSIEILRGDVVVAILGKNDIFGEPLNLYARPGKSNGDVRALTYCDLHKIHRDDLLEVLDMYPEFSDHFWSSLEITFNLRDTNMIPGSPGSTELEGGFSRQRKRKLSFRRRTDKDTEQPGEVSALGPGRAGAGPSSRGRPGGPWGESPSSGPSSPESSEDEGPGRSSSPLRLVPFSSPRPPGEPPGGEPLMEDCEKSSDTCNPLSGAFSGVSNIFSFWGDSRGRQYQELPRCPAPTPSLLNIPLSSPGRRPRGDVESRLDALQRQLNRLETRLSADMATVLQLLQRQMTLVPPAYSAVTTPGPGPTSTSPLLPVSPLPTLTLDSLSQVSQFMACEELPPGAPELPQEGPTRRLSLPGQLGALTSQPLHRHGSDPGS

SMILES: Cc1c(Nc2c(F)ccc(NS(=O)(=O)CCCF)c2Cl)ccc2ncn(C)c(=O)c12 [TINLORAFENIB]
- concentration at 2 h [1]: 11000 ng/mL
- Cp(f) [2]: 59 ng/mL
- Tmax [3]: 1 h
- AUC(0-inf) [4]: 86000 ng·h/mL
- concentration at 4 h [5]: 530 ng/g
- AUC(0-inf) [6]: 28000 ng·h/mL
- fraction unbound [7]: 0.003
- Cp(f) [8]: 79 ng/mL
- bioavailability [9]: 126%
- Activity (A-375 [10]): inactive
- Drug uptake(free) [11]: 0.14 µg/g
- Vd [12]: 0.59 L/kg
- concentration at 4 h [13]: 3100 ng/mL
- concentration at 4 h [14]: 1600 ng/g
- pKa [15]: 7.41
- Cp(f) [16]: 300 ng/mL
- Cmax [17]: 14000 ng/mL
- concentration at 2 h [18]: 4200 ng/mL
- Activity [19]: < 5%
- Activity (A-375 [20]): Active
- concentration at 4 h [21]: 2100 ng/g
- Activity [22]: Non-Toxic
- bioavailability [23]: 130%
- Cmax [24]: 4700 ng/mL
- Activity (A-375 [25]): >99%
- Drug uptake(free) [26]: 0.21 µg/g
- fraction unbound [27]: 0.011
- fraction unbound [28]: 0.068
- Activity (A-375 [29]): >90%
- Drug uptake(free) [30]: 0.18 µg/g
- Drug uptake(free) [31]: 0.046 µg/g
- concentration at 2 h [32]: 590 ng/g
- Activity (A-375 [33]): Active
- fraction unbound [34]: 0.019
- concentration at 2 h [35]: 16000 ng/mL
- Activity [36]: < 5%
- concentration at 2 h [37]: 2400 ng/g
- Drug uptake(free) [38]: 0.051 µg/g
- half-life [39]: 1.9 h
- AUC(0-inf) [40]: 176000 ng·h/mL
- Cp(f) [41]: 230 ng/mL
- Time (A-375 [42]): >24 h
- Tmax [43]: 1 h
- Papp A→B [44]: 36 ×10⁻⁶ cm/s
- concentration at 4 h [45]: 9900 ng/mL
- Tmax [46]: 1 h
- fraction unbound [47]: 0.017
- IC50 [48]: 49.7 µM
- concentration at 2 h [49]: 1600 ng/g
- Drug uptake(free) [50]: 0.14 µg/g
- fraction unbound [51]: 0.087
- F [52]: 192%
- Time (A-375 [53]): ~16 h
- Time (A-375 [54]): >16 h
- solubility [55]: 9.1 µg/mL (≈ 19.9 µM)
- fraction unbound [56]: 0.009
- fraction unbound [57]: 0.073
- concentration at 4 h [58]: 12000 ng/mL
- degraded [59]: < 1%
- solubility [60]: 132 µg/mL (≈ 289 µM)
- solubility [61]: 7.6 µg/mL (≈ 16.6 µM)
- clearance [62]: 3.7 mL/min/kg
- degraded [63]: < 1%
- Cmax [64]: 18000 ng/mL
- fraction unbound [65]: 0.068
- Time (A-375 [66]): ~8 h
- Cp(f) [67]: 190 ng/mL
- Cp(f) [68]: 220 ng/mL
